Results on 33 compounds are retold here after patent publication US8703805B2 (Exelixis Patent Company LLC, priority 2005, dated 2014).

SMILES strings stand for the structures.

The test system of the test is LXRα and/or LXRβ. Description: LXR/LXRE co-transfection assay (luciferase reporter, CV-1 cells). The class given is cell-based, human. Conditions: IC50 or EC50 for LXR (LXRα and/or LXRβ, not distinguished), tested as described in Example 109, CV-1 cells. An outline of the steps:
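Luciferase readout after 20 h compound exposure at 37 °C in CV-1 cells transiently expressing human LXRα or LXRβ with RXRα and an LXRE-driven reporter. Dose-response over 8 points at ½-log spacing, 4 wells each, fitted for EC50/IC50; values average ≥3 independent experiments, efficacy as % of high control.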
In the case of `CC(C)(O)c1cc(-c2ccc(-c3cccc(OC(F)(F)F)c3)s2)n(-c2ccccc2Cl)n1` [Example 1274, 2-[1-(2-chlorophenyl)-5-(5-{3-[(trifluoromethyl)oxy]phenyl}-2-thienyl)-1H-pyrazol-3-yl]propan-2-ol], the EC50 – broadly, the concentration that produces a half-maximal response – fell in the range of 1 to 10 µM.
For `COC(=O)c1cccc(-c2ccc(-c3cc(C(=O)NCC(F)(F)F)nn3-c3ccccc3Cl)s2)c1` [Example 1275] the value was 1 to 10 µM; for `CC(C)(O)c1cccc(-c2ccc(-c3cc(C(=O)NCC(F)(F)F)nn3-c3ccccc3Cl)s2)c1` [Example 1276, 1-(2-chlorophenyl)-5-{5-[3-(1-hydroxy-1-methylethyl)phenyl]-2-thienyl}-N-(2,2,2-trifluoroethyl)-1H-pyrazole-3-carboxamide], 1 to 10 µM.
`CS(=O)(=O)c1cccc(-c2ccc(-c3cc(C(=S)NCC(F)(F)F)nn3-c3ccccc3Cl)s2)c1` [Example 1277, 1-(2-chlorophenyl)-5-{5-[3-(methylsulfonyl)phenyl]-2-thienyl}-N-(2,2,2-trifluoromethyl)-1H-pyrazole-3-carbothioamide]: the EC50 was under 1 µM.
For `CC(C)(O)c1nn(-c2ccccc2Cl)c(-c2ccc(-c3cccc(S(C)(=O)=O)c3)s2)c1Br` [Example 1278, 2-[4-bromo-1-(2-chlorophenyl)-5-{5-[3-(methylsulfonyl)phenyl]-2-thienyl}-1H-pyrazol-3-yl]propan-2-ol] the value was under 1 µM; for `CC(C)(O)c1cc(-c2ccc(-c3cccc(S(C)(=O)=O)c3)s2)n(-c2cc(Cl)ccc2Cl)n1` [Example 1279, 2-[1-(2,5-dichlorophenyl)-5-{5-[3-(methylsulfonyl)phenyl]-2-thienyl}-1H-pyrazol-3-yl]propan-2-ol], 1 to 10 µM.
`CC(C)(O)c1cc(-c2ccc(-c3cccc(S(C)(=O)=O)c3)s2)n(-c2ccc(Cl)cc2Cl)n1` [Example 1280, 2-[1-(2,4-dichlorophenyl)-5-{5-[3-(methylsulfonyl)phenyl]-2-thienyl}-1H-pyrazol-3-yl]propan-2-ol] came in with a concentration for a half-maximal effect (EC50) of 1 to 10 µM.
On to `CC(C)(O)c1cc(-c2ccc(-c3cccc(S(C)(=O)=O)c3)s2)n(-c2cccc(Cl)c2Cl)n1` [Example 1281, 2-[1-(2,3-dichlorophenyl)-5-{5-[3-(methylsulfonyl)phenyl]-2-thienyl}-1H-pyrazol-3-yl]propan-2-ol], for which the EC50 was under 1 µM.
In turn, `CC(C)(O)c1cc(-c2ccc(-c3ccc4cc[nH]c4c3)cc2)n(-c2ccccc2Cl)n1` [Example 1282, 2-{1-(2-chlorophenyl)-5-[4-(1H-indol-6-yl)phenyl]-1H-pyrazol-3-yl}propan-2-ol] registered an EC50 of 1 to 10 µM.
The result for `CC(C)(O)c1cc(-c2ccc(-c3ccc4[nH]ccc4c3)cc2)n(-c2ccccc2Cl)n1` [Example 1283, 2-{1-(2-chlorophenyl)-5-[4-(1H-indol-5-yl)phenyl]-1H-pyrazol-3-yl}propan-2-ol] reads 1 to 10 µM; that for `Cn1ccc2cc(-c3ccc(-c4cc(C(C)(C)O)nn4-c4ccccc4Cl)cc3)ccc21` [Example 1284, 2-{1-(2-chlorophenyl)-5-[4-(1-methyl-1H-indol-5-yl)phenyl]-1H-pyrazol-3-yl}propan-2-ol], 1 to 10 µM.
The result for `CC(C)(O)c1cc(-c2ccc(-c3cccc(O)c3)cc2)n(-c2ccccc2Cl)n1` [Example 1285, 4′-[1-(2-chlorophenyl)-3-(1-hydroxy-1-methylethyl)-1H-pyrazol-5-yl]biphenyl-3-ol] reads 1 to 10 µM.
For `CC(C)(O)c1cc(-c2ccc(-c3cccc4[nH]ccc34)cc2)n(-c2ccccc2Cl)n1` [Example 1286, 2-{1-(2-chlorophenyl)-5-[4-(1H-indol-4-yl)phenyl]-1H-pyrazol-3-yl}propan-2-ol] the value was 1 to 10 µM.
As for `CC(C)(O)c1cc(-c2ccc(-c3cccc(C(F)(F)F)c3)cc2)n(-c2ccccc2Cl)n1` [Example 1287, 2-{1-(2-chlorophenyl)-5-[3′-(trifluoromethyl)biphenyl-4-yl]-1H-pyrazol-3-yl}propan-2-ol], the EC50 was 1 to 10 µM.
The result for `CC(C)(O)c1cc(-c2ccc(-c3ccc(C(F)(F)F)cc3Cl)cc2)n(-c2ccccc2Cl)n1` [Example 1288, 2-{1-(2-chlorophenyl)-5-[2′-chloro-4′-(trifluoromethyl)biphenyl-4-yl]-1H-pyrazol-3-yl}propan-2-ol] reads 1 to 10 µM.
The result for `CC(C)(O)c1cc(-c2ccc(-c3ccc(C=O)s3)cc2)n(-c2ccccc2Cl)n1` [Example 1289, 5-{4-[1-(2-chlorophenyl)-3-(1-hydroxy-1-methylethyl)-1H-pyrazol-5-yl]phenyl}thiophene-2-carbaldehyde] reads 1 to 10 µM; that for `CC(=O)c1ccc(-c2ccc(-c3cc(C(C)(C)O)nn3-c3ccccc3Cl)cc2)s1` [Example 1290, 1-(5-{4-[1-(2-chlorophenyl)-3-(1-hydroxy-1-methylethyl)-1H-pyrazole-5-yl]phenyl}-2-thienyl)ethanone], 1 to 10 µM; that for `COc1ncc(-c2ccc(-c3cc(C(C)(C)O)nn3-c3ccccc3Cl)cc2)cn1` [Example 1291, 2-[1-(2-chlorophenyl)-5-{4-[2-(methyloxy)pyrimidin-5-yl]phenyl}-1H-pyrazol-3-yl]propan-2-ol], 1 to 10 µM.
For `CC(C)NC(=O)c1cccc(-c2ccc(-c3cc(C(C)(C)O)nn3-c3ccccc3Cl)cc2)c1` [Example 1292, 4′-[1-(2-chlorophenyl)-3-(1-hydroxy-1-methylethyl)-1H-pyrazol-5-yl]-N-(1-methylethyl)biphenyl-3-carboxamide] the value was 1 to 10 µM; for `CN(C)CCNC(=O)c1cccc(-c2ccc(-c3cc(C(C)(C)O)nn3-c3ccccc3Cl)cc2)c1` [Example 1293, 4′-[1-(2-chlorophenyl)-3-(1-hydroxy-methylethyl)-1H-pyrazol-5-yl]-N-[2-(dimethylamino)ethyl]biphenyl-3-carboxamide], 1 to 10 µM; for `CC(C)(O)c1nn(-c2ccccc2Cl)c(-c2ccc(-c3cccc(S(C)(=O)=O)c3)s2)c1Cl` [Example 1294, 2-[4-chloro-1-(2-chlorophenyl)-5-{5-[3-(methylsulfonyl)phenyl]-2-thienyl}-1H-pyrazol-3-yl]propan-2-ol], under 1 µM.
`CC(C)NC(=O)Oc1cccc(-c2ccc(-c3cc(C(C)(C)O)nn3-c3ccccc3Cl)cc2)c1` [Example 1296, 4′-[1-(2-chlorophenyl)-3-(1-hydroxy-1-methylethyl)-1H-pyrazol-5-yl]biphenyl-3-yl (1-methylethyl)carbamate] showed an EC50 of 1 to 10 µM.
In turn, `CCOC(=O)COc1cccc(-c2ccc(-c3cc(C(C)(C)O)nn3-c3ccccc3Cl)cc2)c1` [Example 1297, ethyl ({4′-[1-(2-chlorophenyl)-3-(1-hydroxy-1-methylethyl)-1H-pyrazol-5-yl]biphenyl-3-yl}oxy)acetate] returned an EC50 of 1 to 10 µM.
The result for `CCN(CC)C(=O)COc1cccc(-c2ccc(-c3cc(C(C)(C)O)nn3-c3ccccc3Cl)cc2)c1` [Example 1298, 2-({4′-[1-(2-chlorophenyl)-3-(1-hydroxy-1-methylethyl)-1H-pyrazol-5-yl]biphenyl-3-yl}oxy)-N,N-diethylacetamide] reads 1 to 10 µM; that for `CC(C)(O)c1cc(-c2ccc(-c3ccc(F)c(C(F)(F)F)c3)cc2)n(-c2ccccc2Cl)n1` [Example 1299, 2-{1-(2-chlorophenyl)-5-[4′-fluoro-3′-(trifluoromethyl)biphenyl-4-yl]-1H-pyrazol-3-yl}propan-2-ol], 1 to 10 µM; that for `CC(C)(O)c1cc(-c2ccc(-c3cccc(S(N)(=O)=O)c3)cc2)n(-c2ccccc2Cl)n1` [Example 1300, 4′-[1-(2-chlorophenyl)-3-(1-hydroxy-1-methylethyl)-1H-pyrazol-5-yl]biphenyl-3-sulfonamide], 1 to 10 µM.
On to `Cc1c(C(C)(C)O)nn(-c2ccccc2Cl)c1-c1ccc(-c2cccc(S(C)(=O)=O)c2)s1` [Example 1301, 2-[1-(2-chlorophenyl)-4-methyl-5-{5-[3-(methylsulfonyl)phenyl]-2-thienyl}-1H-pyrazol-3-yl]propan-2-ol], for which the EC50 is under 1 µM.
The result for `CCS(=O)(=O)c1cccc(-c2ccc(-c3cc(C(C)(C)C(=O)O)nn3-c3ccccc3Cl)s2)c1` [Example 1302, 2-[1-(2-chlorophenyl)-5-{5-[3-(ethylsulfonyl)phenyl]-2-thienyl}-1H-pyrazol-3-yl]-2-methylpropanoic acid] reads 1 to 10 µM.
Regarding `CC(C)(O)c1ccc(-c2ccc(-c3cc(C(F)(F)F)nn3-c3cc(Cl)ccc3Cl)s2)cc1S(C)(=O)=O` [Example 1304, 2-[4-{5-[1-(2,5-dichlorophenyl)-3-(trifluoromethyl)-1H-pyrazol-5-yl]-2-thienyl}-2-(methylsulfonyl)phenyl]propan-2-ol], the EC50 is under 1 µM.
Consider `CC(C)(O)c1cc(-c2ccc(-c3ccc(S(C)(=O)=O)cc3)cc2)n(-c2ccccc2Cl)n1` [Example 1305, 2-{1-(2-chlorophenyl)-5-[4′-(methylsulfonyl)biphenyl-4-yl]-1H-pyrazol-3-yl}propan-2-ol], for which the EC50 lay in the range of 1 to 10 µM.
For `CC(C)(O)c1cc(-c2ccc(-c3ccc(S(N)(=O)=O)cc3)cc2)n(-c2ccccc2Cl)n1` [Example 1306, 4′-[1-(2-chlorophenyl)-3-(1-hydroxy-1-methylethyl)-1H-pyrazol-5-yl]biphenyl-4-sulfonamide] the value was 1 to 10 µM.
For `CC(C)(O)c1cccc(-c2ccc(-c3cc(C(C)(C)O)nn3-c3ccccc3Cl)cc2)c1` [Example 1307, 2-{1-(2-chlorophenyl)-5-[3′-(1-hydroxy-1-methylethyl)biphenyl-4-yl]-1H-pyrazol-3-yl}propan-2-ol] the value was under 1 µM; for `CC(C)(O)c1cc(-c2ccc(-c3cc(C(F)(F)F)nn3-c3cc(Cl)ccc3Cl)s2)cc(S(C)(=O)=O)c1` [Example 1308, 2-[3-{5-[1-(2,5-dichlorophenyl)-3-(trifluoromethyl)-1H-pyrazol-5-yl]-2-thienyl}-5-(methylsulfonyl)phenyl]propan-2-ol], under 1 µM.
